Data reported in publication PMC11375437, “Selective labelling of GBA2 in cells with fluorescent β-D-arabinofuranosyl cyclitol aziridines” (Chemical Science, 2024).

Test system: GBA2
Assay: Labelling of GBA2 orthologue in zebrafish larvae homogenates
Type: biochemical, zebrafish (Danio rerio)
Details: 1 h at 37 °C; ABP 3 and 7 at 1 μM, ABP 4 and 5 at 2.5 μM
Method: GBA2 orthologs are highly conserved among different species. […] The labelling capability of β-D-Araf aziridine ABPs toward GBA2 orthologs in these species was therefore evaluated. Homogenates of zebrafish larvae or mice brain homogenates were incubated with β-D-Araf ABPs 3–5 or broad-spectrum ABP 7 (Fig. 4).
Fig. 4 Fluorescent gel images of selective labelling of GBA2 orthologues by β-D-Araf aziridine ABPs in different species. Cyclophellitol-aziridine ABP 7 (1 μM) and β-D-Araf ABPs (ABP 3 at 1 μM and ABP 4 and 5 at 2.5 μM) were incubated with homogenates of zebrafish (15 μg total protein) and mice brain (15 μg total protein) for 1 h at 37 °C. […]
were transferred to nitrocellulose membrane for western blotting. Ponceau S staining was used to show total protein loading. […]
2.12 Reactivity of β-D-Araf aziridines towards GBA2 orthologue in other species β-D-Araf aziridine ABP 3-5 or ABP 7 was incubated with homogenates of zebrafish (Danio rerio) larvae or mice brain for 1 h at 37 °C. […] The zebrafish homogenates were passed through a desalting column (in the same way as described for the irreversibility evaluation above) to remove interference from biological pigments when scanning at λEX 473 nm and λEM ≥ 510 nm for BODIPY green fluorescence. […]

CN1/C(=C/C=C/C=C/C2=[N+](CCCCCC(=O)NCc3cn(CCCCCCCCN4[C@@H]5[C@H](CO)[C@@H](O)[C@H](O)[C@@H](O)[C@@H]54)nn3)c3ccccc3C2(C)C)C(C)(C)c2ccccc21 (stereo partly shown) [ABP 7]
Labelling selectivity in zebrafish larvae homogenates: show cross-reactivity towards GBA1
